Measurements taken from patent US20070275936A1, “Formulations and Treatment Methods” (priority 1998, published 2007).

Key:
[1] = system: Chloroquine sensitive T996/86 P. falciparum; assay: In vitro antimalarial testing (schizont inhibition / 3H-hypoxanthine incorporation); assay type: cell-based; conditions: Plasmodium falciparum, T996
Protocol: For in vitro antimalarial testing, micro-titer plates were used. The concentration of drugs were prepared as pMol/well according to WHO standard procedures (WHO, 1990). The test compound was dissolved in 15% DMSO in sterile RPMI-1640. Both chloroquine sensitive (e.g., WS/97) and resistant (e.g., MN/97) isolates of Plasmodium species are used.
A schizont inhibition assay was performed as follows. The micro-titer plates were predosed with various concentrations of the test compound. 50 μL of parasitised erythrocyte suspension in RPMI-1640 (0.2 mL erythrocyte+0.3 mL serum+4-5 ml RPMI-1640) were dispensed in microtiter wells that contained various concentrations of drug. Triplicate readings were made for each concentration.
A ^3H-hypoxanthine incorporation assay was performed as follows. The testing was carried out according to the procedure of Desjardins et al. 1979. After 30 hr culture at 37 degrees C., the same microtiter plates from schizont inhibition assays with another triplicate wells were pulsed with ^3H-hypoxanthine for overnight. The cell suspensions were washed twice on millipore glass fiber filter with Millipore filter apparatus. The filter discs were counted for DPM by a Beckman LS6000 β-scintillation counter. The activity of the drug was measured by plotting DPM against concentration of drug.

P. berghei HP15 ANKA = assay: Four-day in vivo suppressive test in TO mice; parameters: species or system Plasmodium berghei; conditions: 100 mg/kg × 4 days i.p., day 5 blood films, 5 equals control
Protocol: The 4-day suppressive test has been widely used and it can be performed within a 1 week period. The test consists of the inoculation of parasitised erythrocytes on the first day of the experiment (D0), followed by an injection of the test compound, which is also administered on the 2nd, 3rd and 4th days of the protocol. On the 5th day, blood films are taken and antimalarial activity is assessed either by calculating parasitemia, or by scoring parasite numbers on a predetermined scale (i.e., 1-5).
The protocol is summarized as follows. Five female TO mice were used per test group. P. berghei HP15 ANKA parasites were collected by cardiac puncture using a heparinised syringe from a donor mouse having a 30+% parasitaemia. The blood was diluted with diluting agent (50% HIFCS+50% sterile PBS) to a final concentration of 1% parasitaemia or 1×10^7 infected erythrocytes per 0.2 mL of the infecting suspension. […] The steroid formulations were administered intraperitoneally 2 hours after parasite inoculation. The compounds were administered once a day starting on Do, and continued on the following three days. Blood films were made from tail blood on the day after the last dosing of compound and the blood was fixed with 100% methanol and stained with 10% Giemsa. Parasitaemias were scored on a scale of 0-5, where 5 is equal to the control.
An inoculum of 1% parasitaemia […], 0.2 mL per mouse (female strain TO mice), was delivered by intravenous injection. Drug administration commenced 2 hours after inoculation on Day 1 and continued for 3 days.

Sprague Dawley rats = assay: TNBS induced distal colitis in rats; assay type: in vivo; conditions: day 14
Protocol: In another protocol formula 1 compounds were used in a similar animal model. Groups of 10 male Sprague Dawley rats (250-300 grams) were fasted for 24 hours before 2,4,6-trinitrobenzene sulfonic acid (TNBS) or saline challenge. This model presents a severe challenge to the animal's immune system. On Day 0, the rats were lightly anesthetized and a catheter inserted rectally into the colon such that the tip was 8 cm proximal to the anus. Distal colitis was induced by intra-colonic instillation of 0.5 mL of an ethanolic solution of TNBS (60 mg/mL ethanol 50% in water). The test substance, 7-oxodehydroepiandrosterone 20 mg/mL in vehicle or vehicle control was administered by subcutaneous injection (0.1 mL/injection) once a day for 6 days, the first dose being given 30 minutes after TNBS challenge. Sulfasalazine (30 mg/mL in 2% Tween 80 in distilled water) or vehicle control was administered orally (PO) once a day (10 mL/kg/day) for 7 days, the first two doses beginning 24 hours and 2 hours before […] challenge. Signs of diarrhea were recorded daily by examining the anal area. Animals were fasted for 24 hours prior to sacrifice on day 14 and the colon was removed and weighed. After gross observations of colonic tissues, 3 samples were taken from regions approximately 1, 3, and 8 cm proximal to the anus. If gross ulcers or inflammation were present, at least one sample was taken from the affected region. Before removal of the colon, signs of adhesion between the colon and other organs were recorded. […] Body weight, colon-to-body-weight ratio, and damage scores were assessed. Visible damage was scored on a 1-5 scale as follows: 0=No damage; 1=Localized hyperemia but no ulcers; 2=linear ulcers with no significant inflammation; 3=Linear ulcers with inflammation at one site; 4=Two or more sites of ulceration and/or inflammation; 5=Two or more major sites of ulceration and inflammation or one major site of ulceration and inflammation extending more than 1 cm along the length of the colon. […]

## C[C@]12CC[C@H](O)CC1=CC[C@@H]1[C@@H]2CC[C@]2(C)C(=O)CC[C@@H]12 [DHEA, dehydroepiandrosterone, reference compound]
[1]
  IC50: 19 µM
  inhibition at 0.938 µM: 37.2%
  inhibition at 1.875 µM: 23.2%
  inhibition at 3.25 µM: 37.2%
  inhibition at 7.5 µM: 38.3%
  inhibition at 15 µM: 44%
  inhibition at 30 µM: 65.6%
P. berghei HP15 ANKA
  Parasitaemia Score (0-5): 1
Sprague Dawley rats
  histopathology: inflammation / lesion frequency and severity versus controls: appeared to be similar

## C[C@]12CC[C@H](O)C[C@@H]1CC[C@@H]1[C@@H]2CC[C@]2(C)C(=O)[C@H](Br)C[C@@H]12 [BrEA, 16α-bromo-3β-hydroxy-5α-androstane-17-one]
[1]
  IC50: 7.5 µM
  inhibition at 0.938 µM: 31.8%
  inhibition at 1.875 µM: 40.9%
  inhibition at 3.25 µM: 43.7%
  inhibition at 7.5 µM: 50%
  inhibition at 15 µM: 60.1%
  inhibition at 30 µM: 98%
P. berghei HP15 ANKA
  Parasitaemia Score (0-5): 1
Sprague Dawley rats
  histopathology: inflammation / lesion frequency and severity versus controls: appeared to be similar
